Measurements from ChEMBL document CHEMBL5518239, “Recent Advances on Small-Molecule Inhibitors of Lipocalin-like Proteins” (J Med Chem, 2024).
Values belong to the compound of their own block, whether it stands above or below them.

Experiments:
[1] = target: T1, Fatty acid-binding protein, adipocyte (Homo sapiens, UniProt P15090)
[2] = target: T2, Fatty acid-binding protein, heart (Homo sapiens, UniProt P05413)
[3] = target: T3, Fatty acid-binding protein, brain (Homo sapiens, UniProt O15540)
[4] = target: T1, Fatty acid-binding protein, adipocyte; remark: listed apart in the source
[5] = in vitro; conditions: human, liver microsomes
[6] = target: Retinol-binding protein 4 (Homo sapiens, UniProt P02753)
[7] = target: T4, Retinol-binding protein 1 (Homo sapiens, UniProt P09455)
T4 sequence (P09455 whole entry): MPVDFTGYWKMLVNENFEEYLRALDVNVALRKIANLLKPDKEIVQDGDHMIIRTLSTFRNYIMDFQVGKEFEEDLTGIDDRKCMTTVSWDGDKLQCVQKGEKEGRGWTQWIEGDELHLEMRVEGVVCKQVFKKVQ

[8] = target: T4, Retinol-binding protein 1; remark: listed apart in the source
[9] = target: T3, Fatty acid-binding protein, brain; remark: listed apart in the source
[10] = target: T2, Fatty acid-binding protein, heart; remark: listed apart in the source

Compound: C=C1CC[C@@H]2[C@](C)(CO)[C@H](O)CC[C@@]2(C)[C@@H]1C/C=C1/C(=O)OC[C@H]1O [ANDROGRAPHOLIDE]
- IC50 [1]: 900 nM

Compound: O=C(O)c1ccccc1NC(=O)N1CCC(c2ccccc2C(F)(F)F)CC1
- remaining at 0.5 h [5]: < 30%

Compound: CC1=C(/C=C/C(C)=C/C=C/C(C)=C/C(=O)NCCO)C(C)(C)CCC1
- Kd [6]: 131 nM

Compound: Cc1ccc(C2(c3noc(CN(C)Cc4cccs4)n3)CCCC2)cc1
- Ki [7]: 7100 nM

Compound: CC(c1cccs1)N(C)Cc1nc(C(c2ccccc2)c2ccccc2)no1 (stereo not given)
- Ki [7]: 7100 nM

Compound: CC1=C(/C=C/C(C)=C/C=C/C(C)=C/C(=O)N2CCOCC2)C(C)(C)CCC1
- Kd [6]: 131 nM

Compound: CC1=C(/C=C/C(C)=C/C=C/C(C)=C/C(=O)Nc2ccc(OCC(=O)O)cc2)C(C)(C)CCC1
- Kd [6]: 131 nM

Compound: C=C(C)C1CCCC[C@H]1c1c(O)cc(O)cc1CCCCC (stereo not given in full)
- Ki [8]: 67 nM

Compound: CC1=C(/C=C/C(C)=C/C=C/C(C)=C/C(=O)NCC(O)CO)C(C)(C)CCC1 (stereo not given)
- Kd [6]: 131 nM

Compound: O=C(O)CCCOc1ccc(F)cc1-c1cc(-c2ccccc2C(F)(F)F)n(-c2ccccc2)n1
- Ki [10]: 24 nM

Compound: Cc1ccc(C2(c3noc(CN(C)Cc4cnn(C)c4)n3)CCCC2)cc1
- Ki [7]: 7100 nM

Compound: CC1=C(/C=C/C(C)=C/C=C/C(C)=C/C(=O)Nc2ccc(N(C)C)cc2)C(C)(C)CCC1
- Kd [6]: 131 nM

Now from value to compound:

- Ki [2]: 2600 nM
- Ki [3]: 1500 nM
Compound: O=C(O)[C@H]1[C@@H](c2ccccc2)[C@H](C(=O)Nc2cccc3ccccc23)[C@@H]1c1ccccc1

- IC50 [4]: 2510 nM
Compound: O=C(O)Cc1cn(-c2ccccc2-c2nc(-c3ccc(Cl)cc3)c(-c3ccccc3)s2)nn1

- Ki [2]: 3500 nM
- Ki [3]: 1300 nM
Compound: O=C(O)[C@H]1[C@@H](c2ccccc2)[C@H](C(=O)Oc2ccc3ccccc3c2)[C@@H]1c1ccccc1

- Ki [2]: 1590 nM
Compound: COc1ccccc1[C@H]1[C@H](C(=O)O)[C@H](c2ccccc2OC)[C@H]1C(=O)Oc1ccccc1-c1ccccc1

- Ki [9]: 830 nM
Compound: O=C(O)[C@H]1[C@H](c2ccccc2)[C@H](C(=O)Oc2cccc(C3=CCOCC3)c2)[C@H]1c1ccccc1

- IC50 [4]: 3980 nM
Compound: O=C(O)Cc1cn(-c2ccccc2-c2nc(-c3ccccc3)c(-c3ccccc3)s2)nn1

- Ki [2]: > 10000 nM
- Ki [3]: 3300 nM
Compound: O=C(Nc1cccc2ccccc12)[C@H]1[C@H](c2ccccc2)[C@H](C(=O)Nc2cccc3ccccc23)[C@H]1c1ccccc1

- Ki [2]: 3600 nM
- Ki [9]: 400 nM
Compound: O=C(O)[C@H]1[C@@H](c2ccccc2)[C@H](C(=O)Oc2cccc3ccccc23)[C@@H]1c1ccccc1

- IC50 [4]: 1260 nM
Compound: O=C(O)Cc1cn(-c2ccccc2-c2nc(-c3ccc4ccccc4c3)c(-c3ccccc3)s2)nn1
